PubChem BioAssay AID624091 (Broad Institute, 2012)
Activity calls are given as the source filed them. How the calls were made is not given here.

Columns and labels:
Experiment in all cases: selectivity of inhibitors across GSK3a/b, CDKs – biochemical, selected compounds, dry powder samples, selectivity assay for GSK3beta inhibitor project, dose response (AID 624091)
[1] = target: Cyclin-dependent kinase 1 (Homo sapiens) (UniProt P06493); details: Carna mobility shift kinase assay, LabChip, panel; CDC2/CycB1
Sequence of Cyclin-dependent kinase 1 (Homo sapiens) (P06493 whole entry, looked up): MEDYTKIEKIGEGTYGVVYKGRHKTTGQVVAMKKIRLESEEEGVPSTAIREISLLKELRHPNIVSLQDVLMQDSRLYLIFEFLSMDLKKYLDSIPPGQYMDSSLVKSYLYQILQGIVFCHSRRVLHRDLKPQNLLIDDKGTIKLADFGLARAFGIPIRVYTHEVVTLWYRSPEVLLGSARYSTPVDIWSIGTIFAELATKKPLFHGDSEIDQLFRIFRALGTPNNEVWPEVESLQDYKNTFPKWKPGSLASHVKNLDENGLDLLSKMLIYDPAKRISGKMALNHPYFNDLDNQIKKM

[2] = target: Cyclin-dependent kinase 5 (Homo sapiens) (UniProt Q00535); details: Carna mobility shift kinase assay, LabChip, panel; CDK5/p25
Sequence of Cyclin-dependent kinase 5 (Homo sapiens) (Q00535 whole entry, looked up): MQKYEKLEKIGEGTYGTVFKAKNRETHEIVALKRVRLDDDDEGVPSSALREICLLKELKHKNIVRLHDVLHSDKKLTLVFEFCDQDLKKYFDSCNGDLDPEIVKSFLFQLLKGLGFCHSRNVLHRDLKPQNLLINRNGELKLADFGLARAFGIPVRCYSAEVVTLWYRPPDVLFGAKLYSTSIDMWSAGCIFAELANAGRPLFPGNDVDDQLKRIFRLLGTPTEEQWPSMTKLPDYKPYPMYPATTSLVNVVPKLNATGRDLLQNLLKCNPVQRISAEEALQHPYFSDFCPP

[3] = target: Glycogen synthase kinase-3 alpha (Homo sapiens) (UniProt P49840); details: Carna mobility shift kinase assay, LabChip, panel; GSK3a
Sequence of Glycogen synthase kinase-3 alpha (Homo sapiens) (P49840 whole entry, looked up): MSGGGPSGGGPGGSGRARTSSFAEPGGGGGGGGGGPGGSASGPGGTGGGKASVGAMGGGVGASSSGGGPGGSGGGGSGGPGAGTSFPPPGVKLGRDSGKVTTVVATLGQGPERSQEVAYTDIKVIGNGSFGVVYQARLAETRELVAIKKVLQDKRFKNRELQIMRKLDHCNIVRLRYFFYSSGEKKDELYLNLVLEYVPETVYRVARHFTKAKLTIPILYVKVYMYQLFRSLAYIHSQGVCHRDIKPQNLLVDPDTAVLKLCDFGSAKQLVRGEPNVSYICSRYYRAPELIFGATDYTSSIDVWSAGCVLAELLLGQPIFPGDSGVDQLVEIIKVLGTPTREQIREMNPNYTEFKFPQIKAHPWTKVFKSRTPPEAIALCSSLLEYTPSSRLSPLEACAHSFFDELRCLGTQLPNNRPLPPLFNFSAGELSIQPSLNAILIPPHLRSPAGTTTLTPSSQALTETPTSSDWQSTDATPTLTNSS

[4] = target: Glycogen synthase kinase-3 beta (Homo sapiens) (UniProt P49841); details: Carna mobility shift kinase assay, LabChip, panel; GSK3b
Sequence of Glycogen synthase kinase-3 beta (Homo sapiens) (P49841 whole entry, looked up): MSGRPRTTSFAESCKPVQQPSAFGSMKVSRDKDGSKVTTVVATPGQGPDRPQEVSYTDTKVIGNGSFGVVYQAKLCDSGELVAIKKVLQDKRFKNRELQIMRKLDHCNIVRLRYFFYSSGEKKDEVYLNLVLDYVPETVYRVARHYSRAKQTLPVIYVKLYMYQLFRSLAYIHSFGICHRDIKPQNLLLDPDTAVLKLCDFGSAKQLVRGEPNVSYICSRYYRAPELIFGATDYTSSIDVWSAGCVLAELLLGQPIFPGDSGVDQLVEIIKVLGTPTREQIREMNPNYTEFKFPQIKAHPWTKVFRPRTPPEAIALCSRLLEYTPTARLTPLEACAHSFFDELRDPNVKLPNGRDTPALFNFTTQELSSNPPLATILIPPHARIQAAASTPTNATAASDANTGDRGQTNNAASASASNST

[5] = target: Cyclin-dependent kinase 2 (Homo sapiens) (UniProt P24941); details: Carna mobility shift kinase assay, LabChip, panel

SMILES | IC50 [1] | IC50 [2] | IC50 [3] | IC50 [4] | IC50 ([5]; CDK2/CycA2) | IC50 ([5]; CDK2/CycE1)
Cc1[nH]nc2c1C(c1ccccc1C(F)(F)F)C1=C(CC(C)(C)CC1=O)N2 (stereo not drawn) | inactive | 223 nM | 14.6 nM | 26.8 nM | inactive | 808 nM
Cc1[nH]nc2c1[C@H](c1ccccc1C(F)(F)F)C1=C(CC(C)(C)CC1=O)N2 | > 10000 nM (inactive) | > 10000 nM (inactive) | inactive | inactive | > 10000 nM (inactive) | > 10000 nM (inactive)
COc1ccccc1[C@H]1C2=C(CC(C)(C)CC2=O)Nc2n[nH]c(C(F)(F)F)c21 | > 10000 nM (inactive) | – | 980 nM | 613 nM | > 10000 nM (inactive) | > 10000 nM (inactive)
Cc1[nH]nc2c1[C@@H](c1ccccc1C(F)(F)F)C1=C(CC(C)(C)CC1=O)N2 | 839 nM | 127 nM | 7.79 nM | 15.5 nM | 561 nM | 427 nM
COc1ccccc1[C@@H]1C2=C(CC(C)(C)CC2=O)Nc2n[nH]c(C(F)(F)F)c21 | > 10000 nM (inactive) | – | 13.2 nM | 12.4 nM | inactive | inactive
COc1ccccc1C1C2=C(CC(C)(C)CC2=O)Nc2n[nH]c(C(F)(F)F)c21 (stereo not drawn) | > 10000 nM (inactive) | – | 23.4 nM | 22.8 nM | inactive | inactive
